Reference: patent publication US20030153618A1, “Treatment and prevention of herpes simplex infections” (priority 1999, published 2003)
“And” between values parts separate entries of the source, which are not always exact repeats. Equal entries are not always repeated.

System: HSV, Type II
Assay: Direct plaque-forming unit (PFU) count in BSC cells in defined media with set lysine (or derivative):arginine ratio
Assay type: cell-based
Settings: for Plaque Forming Unit Count, Average: average of experiments 1-6; for P.F.U. Count: average of three tests
Experimental: Absorbed virons were absorbed in susceptible cells in chemically defined media and the number of plaques made were counted. (See Davis, B. D., et al., Microbiology, 2nd Ed., Harper & Row, 1973, Part V, and sources cited therein for procedural details and discussion of the plaque method.)
The cell line chosen was green monkey kidney cells (BSC) that have been passed greater than 41 times. […] The virons were added to a confluent lawn of BSC cells and allowed to absorb at 25° C. for one hour. The unabsorbed virons and the media were removed by washing three times in PBS. […] The control media contained a lysine/arginine ratio of 1:1. The plaques were counted when easily readable. Flasks are done in triplicate.

Structure (SMILES)	Plaque Forming Unit Count, Average (Lysine:Arginine Ratio 1:1 (control media))	Plaque Forming Unit Count (Lysine:Arginine Ratio 1:1 (control media), single experiment)	Plaque Forming Unit Count, Average (Lysine:Arginine Ratio 500:1)	P.F.U. Count (Compound Ratio to Arginine 10:1)	P.F.U. Count (Compound Ratio to Arginine 100:1)
NCCCC[C@H](N)C(=O)O [Lysine, lysine, reference compound]	738	814 and 594 and 631 and 621 and 936 and 781	12		
CC(N)CCCCC(N)C(=O)O (centres unmarked) [drawing 15]				<5	<5
